Results published in ChEMBL document CHEMBL6074685, “Design, synthesis and biological evaluation of novel diaryl-substituted fused nitrogen heterocycles as tubulin polymerization inhibitors to overcome multidrug resistance in vitro and in vivo” (Eur J Med Chem, 2025).
pIC50: −log10 of the molar value. Converted amounts (≈) assume the structure as drawn. The source made the active and inactive calls. No cut-off for these calls is given here.

Assays:
A549/TR [1] = assay: Antiproliferative activity against human A549/T cell assessed as cell growth inhibition incubated for 48 hrs by MTT assay; format: functional, cell-based
A549 [2] = assay: Antiproliferative activity against human A549 cells assessed as cell growth inhibition incubated for 48 hrs by MTT assay; settings: A549, 48 h
[3] = Resistance index, ratio of IC50 for human A549/T cells to IC50 for human A549 cells; format: functional
[4] = Cytotoxicity against human MCF-10A cells assessed as inhibition of cell growth at 10 nM incubated for 48 hrs by MTT assay relative to control; format: toxicity, cell-based
HCC827 = assay: Antiproliferative activity against human HCC827 cells assessed as cell growth inhibition incubated for 48 hrs by MTT assay; format: functional, cell-based; settings: HCC827, 48 h
[5] = (§1) Inhibition of pig brain tubulin polymerization measured upto 20 mins by absorbance based assay; parameters: species or system Sus scrofa
Sus scrofa = species: Sus scrofa; assay: as §1; settings: dose 0.4-12 µM
A549 [6] = assay: Inhibition of colony formation in human A549 cells incubated for 48 hrs by crystal violet staining based analysis; format: functional, cell-based; settings: dose 0.1-0.5 µM
A549/TR [7] = assay: Inhibition of colony formation in human A549/T cell incubated for 48 hrs by crystal violet staining based analysis; format: functional; settings: dose 0.1-0.5 µM
A549/TR [8] = assay: Effect on P-gp protein level in human A549/T cell at 62.5 to 500 nM measured at 12 hrs by immunoblotting analysis; format: functional, cell-based; settings: dose 62.5-500 nM
A549 [9] = assay: Induction of cell cycle arrest in human A549 cells assessed as accumulation of cells at G2/M phase by RNAse A/PI-staining based flow cytometric analysis; format: functional; settings: dose 25-100 nM
A549/TR [10] = assay: Induction of cell cycle arrest in human A549/T cell assessed as accumulation of cells at G2/M phase by RNAse A/PI-staining based flow cytometric analysis; format: functional; settings: dose 25-100 nM
A549 [11] = assay: Induction of apoptosis in human A549 cells at 25 nM incubated for 48 hrs by V-FITC/PI staining based flow cytometry analysis relative to control; format: functional
A549/TR [12] = assay: Induction of apoptosis in human A549/T cell at 62.5 nM incubated for 48 hrs by V-FITC/PI staining based flow cytometry analysis relative to control; format: functional
A549/TR [13] = assay: Induction of apoptosis in human A549/T cell at 250 nM incubated for 48 hrs by V-FITC/PI staining based flow cytometry analysis relative to control; format: functional
[14] = Metabolic stability in human liver microsome assessed as half life measured upto 50 mins by LC-MS/MS analysis; format: ADME; settings: liver microsomes
[15] = Metabolic stability in human liver microsome assessed as intrinsic clearance measured upto 50 mins by LC-MS/MS analysis; format: ADME; settings: liver microsomes, read-out: CLH
[16] = Metabolic stability in mouse liver microsome assessed as half life measured upto 50 mins by LC-MS/MS analysis; format: ADME; settings: liver microsomes
[17] = Aqueous solubility of the compound […] at pH 7.4 by HPLC analysis; format: physicochemical
A549/TR [18] = assay: Antitumor activity against human A549/T cell xenografted in BALB/c mouse assessed as reduction in tumor growth at 15 mg/kg, ip administered every 2 days; format: functional, organism-based; settings: time 2.0 day
[19] = Toxicity in BALB/c mouse implanted with human A549/T cell assessed as change in body weight at 30 mg/kg, ip administered every 2 days; format: organism-based; settings: in vivo, 48 h, time 2 day
[20] = Toxicity in BALB/c mouse implanted with human A549/T cell assessed as heart damage at 15 to 30 mg/kg, ip administered every 2 days by H and E staining based analysis; format: organism-based; settings: in vivo, 48 h, dose 15-30 mg/kg, time 2 day
[21] = Toxicity in BALB/c mouse implanted with human A549/T cell assessed as liver damage at 15 to 30 mg/kg, ip administered every 2 days by H and E staining based analysis; format: organism-based; settings: in vivo, 48 h, dose 15-30 mg/kg, time 2 day
[22] = Toxicity in BALB/c mouse implanted with human A549/T cell assessed as spleen damage at 15 to 30 mg/kg, ip administered every 2 days by H and E staining based analysis; format: organism-based; settings: in vivo, 48 h, dose 15-30 mg/kg, time 2 day
[23] = Toxicity in BALB/c mouse implanted with human A549/T cell assessed as WBC count at 15 mg/kg, ip administered every 2 days and measured after 2 weeks (reference value: 1.3 10^9/L); format: organism-based; settings: in vivo, 336 h
[24] = Toxicity in BALB/c mouse implanted with human A549/T cell assessed as RBC count at 15 mg/kg, ip administered every 2 days and measured after 2 weeks (reference value: 7.92 10^12/L); format: organism-based; settings: in vivo, 336 h
[25] = Toxicity in BALB/c mouse implanted with human A549/T cell assessed as RBC count at 30 mg/kg, ip administered every 2 days and measured after 2 weeks (reference value: 7.92 10^12/L); format: organism-based; settings: in vivo, 336 h
[26] = Toxicity in BALB/c mouse implanted with human A549/T cell assessed as red blood cell distribution width-cell volume at 15 mg/kg, ip administered every 2 days and measured after 2 weeks (reference value: 25fL); format: organism-based; settings: in vivo, 336 h
[27] = Toxicity in BALB/c mouse implanted with human A549/T cell assessed as platelet count at 15 mg/kg, ip administered every 2 days and measured after 2 weeks (reference value: 539 […]); format: organism-based; settings: in vivo, 336 h
[28] = Toxicity in BALB/c mouse implanted with human A549/T cell assessed as platelet count at 30 mg/kg, ip administered every 2 days and measured after 2 weeks (reference value: 539 […]); format: organism-based; settings: in vivo, 336 h
[29] = Toxicity in BALB/c mouse implanted with human A549/T cell assessed as Plate-letocrit at 15 mg/kg, ip administered every 2 days and measured after 2 weeks (reference value: 0.549%); format: organism-based; settings: in vivo, 336 h
[30] = Toxicity in BALB/c mouse implanted with human A549/T cell assessed as mean platelet volume at 15 mg/kg, ip administered every 2 days and measured after 2 weeks (reference value: 10.1 fL); format: organism-based; settings: in vivo, 336 h
[31] = Toxicity in BALB/c mouse implanted with human A549/T cell assessed as platelet distribution width at 15 mg/kg, ip administered every 2 days and measured after 2 weeks (reference value: 15.3 fL); format: organism-based; settings: in vivo, 336 h
[32] = Toxicity in BALB/c mouse implanted with human A549/T cell assessed as MCH level at 15 mg/kg, ip administered every 2 days and measured after 2 weeks (reference value: 29.2 pg); format: organism-based; settings: in vivo, 336 h
[33] = Toxicity in BALB/c mouse implanted with human A549/T cell assessed as MCHC level at 15 mg/kg, ip administered every 2 days and measured after 2 weeks (reference value: 570 g/L); format: organism-based; settings: in vivo, 336 h
[34] = Toxicity in BALB/c mouse implanted with human A549/T cell assessed as MCHC level at 30 mg/kg, ip administered every 2 days and measured after 2 weeks (reference value: 570 g/L); format: organism-based; settings: in vivo, 336 h
[35] = Toxicity in BALB/c mouse implanted with human A549/T cell assessed as lymphocyte count at 30 mg/kg, ip administered every 2 days and measured after 2 weeks (reference value: […]); format: organism-based; settings: in vivo, 336 h
[36] = Toxicity in BALB/c mouse implanted with human A549/T cell assessed as lymphocyte count at 15 mg/kg, ip administered every 2 days and measured after 2 weeks (reference value: 56%); format: organism-based; settings: in vivo, 336 h

Which results are given for `COc1ccc(-c2cc(-c3ccc(OC)c(OC)c3OC)c3nc[nH]c3c2)cc1N`?
pIC50 (A549/TR [1]): 7.24; pIC50 (A549 [2]): 7.64; Ratio IC50 [3]: 2.47; inhibition at 48 h, 0.01 µM [4]: 20%; pIC50 (HCC827): 7.34; pIC50 [5]: 5.74; inhibition (Sus scrofa): Dose-dependent-effect; inhibition (A549 [6]): Dose-dependent-effect; inhibition (A549/TR [7]): Dose-dependent-effect; Activity (A549/TR [8]): inactive; Activity (A549 [9]): Dose-dependent-effect; Activity (A549/TR [10]): Dose-dependent-effect; Activity (A549 [11]): 15.47%; Activity (A549/TR [12]): 22.22%; Activity (A549/TR [13]): 68.13%; half-life [14]: 1.25 h; CLint scaled [15]: 23 mL/min/kg; half-life [16]: 1.05 h; solubility [17]: 20.8 µg/mL (≈ 51.3 µM); Activity (A549/TR [18]): Active; Activity [19]: Non-toxic; Activity [20]: Non-toxic; Activity [21]: Non-toxic; Activity [22]: Non-toxic; Activity [23]: 2.8 10^9/L; Activity [24]: 7.43 10^12/L; Activity [25]: 5.94 10^12/L; Activity [26]: 24 fL; Activity [27]: 505 10^9/L; Activity [28]: 415 10^9/L; Activity [29]: 0.531%; Activity [30]: 10.5 fL; Activity [31]: 17.9 fL; Activity [32]: 28.9 pg; Activity [33]: 589 g/L; Activity [34]: 624 g/L; Activity [35]: 1.32 10^9/L; Activity [36]: 50.7%
